# Laboratory results reported in patent US4000281A, “Pyrazole derivatives” (priority 1971, dated 1976).
# Read-outs that look alike come from different tables or passages of the source.
# Key:
# Type in all cases: in vivo, mice
# Influenza viruses = assay: Mouse-Survival Test (Test No. 1), Influenza virus strain not given; settings: unidentified influenza virus, 360 h; for response vs control in vivo at 500 mg/kg / response vs control in vivo at 5 mg/kg / response vs control in vivo at 50 mg/kg: read-out: Survival Index (S.I.); for responders at 500 mg/kg / responders at 5 mg/kg / responders at 50 mg/kg: read-out: Survival Percent
# Influenza virus Jap 305 [1] = assay: Mouse-Survival Test (Test No. 1), Influenza Jap 305; settings: for S.I.: significant if >1.24
# Influenza virus Jap 305 [2] = settings: 1 dose, 30 minutes before infection, 15 multiples of LD50
# [3] = Jap 305, 50 mg/kg PO, virus dose 15 multiples of LD50
# [4] = Jap 305, 500 mg/kg IP, virus dose 22 multiples of LD50
# [5] = Jap 305, 500 mg/kg PO, virus dose 15 multiples of LD50
smiles,measurement,setting,value
"Cc1[nH]nc(-c2ccncc2)c1-c1ccccc1O [Compound B, 3-(4-pyridyl)-4-(2-hydroxyphenyl)-5-methylpyrazole]",response vs control in vivo at 500 mg/kg,Influenza viruses; ip,129%
same,responders at 500 mg/kg,Influenza viruses; ip,0%
"CCCc1[nH]nc(-c2ccncc2)c1-c1ccccc1O [Compound C, 3-(4-pyridyl)-4-(2-hydroxyphenyl)-5-n-propyl-pyrazole]",response vs control in vivo at 500 mg/kg,Influenza viruses; ip,184%
same,responders at 500 mg/kg,Influenza viruses; ip,50%
"CC(C)c1[nH]nc(-c2ccncc2)c1-c1ccccc1O [Compound D, 3-(4-pyridyl)-4-(2-hydroxyphenyl)-5-isopropylpyrazole]",Survival Percent,Influenza virus Jap 305 [1]; [3],30%
same,S.I.,Influenza virus Jap 305 [1]; [3],1.31
same,Survival Percent,Influenza virus Jap 305 [1]; [4],70%
same,S.I.,Influenza virus Jap 305 [1]; [4],2.16
same,Survival Percent,Influenza virus Jap 305 [1]; [5],100%
same,S.I.,Influenza virus Jap 305 [1]; [5],2.12
same,response vs control in vivo at 5 mg/kg,Influenza viruses; ip,136%
same,response vs control in vivo at 50 mg/kg,Influenza viruses; ip,131%
same,response vs control in vivo at 500 mg/kg,Influenza viruses; ip,269%
same,responders at 5 mg/kg,Influenza viruses; ip,0%
same,responders at 50 mg/kg,Influenza viruses; ip,0%
same,responders at 500 mg/kg,Influenza viruses; ip,100%
same,response vs control in vivo at 50 mg/kg,Influenza viruses; po,167%
same,response vs control in vivo at 500 mg/kg,Influenza viruses; po,214%
same,responders at 50 mg/kg,Influenza viruses; po,40%
same,responders at 500 mg/kg,Influenza viruses; po,60%
same,MDD (Mean Day of Death),Influenza virus Jap 305 [2]; intranasal 2.5% suspension,10.50 days
same,S.I.,Influenza virus Jap 305 [2]; intranasal 2.5% suspension,1.49
same,Survival Percent,Influenza virus Jap 305 [2]; intranasal 2.5% suspension,40%
same,MDD (Mean Day of Death),Influenza virus Jap 305 [2]; intranasal 5% suspension,9.76 days
same,S.I.,Influenza virus Jap 305 [2]; intranasal 5% suspension,1.38
same,Survival Percent,Influenza virus Jap 305 [2]; intranasal 5% suspension,30%
same,MDD (Mean Day of Death),Influenza virus Jap 305 [2]; intranasal 10% suspension,13.00 days
same,S.I.,Influenza virus Jap 305 [2]; intranasal 10% suspension,1.84
same,Survival Percent,Influenza virus Jap 305 [2]; intranasal 10% suspension,60%
"CCCCc1[nH]nc(-c2ccncc2)c1-c1ccccc1O [Compound E, 3-(4-pyridyl)-4-(2-hydroxyphenyl)-5-n-butylpyrazole]",response vs control in vivo at 50 mg/kg,Influenza viruses; ip,130%
same,response vs control in vivo at 500 mg/kg,Influenza viruses; ip,162%
same,responders at 50 mg/kg,Influenza viruses; ip,10%
same,responders at 500 mg/kg,Influenza viruses; ip,10%
"COc1ccc(O)c(-c2c(-c3ccncc3)n[nH]c2C)c1 [Compound F, 3-(4-pyridyl)-4-(2-hydroxy-5-methoxy-phenyl)-5-methylpyrazole]",response vs control in vivo at 500 mg/kg,Influenza viruses; ip,129%
same,responders at 500 mg/kg,Influenza viruses; ip,0%
"CCc1nn(C)c(-c2ccncc2)c1-c1ccccc1O [Compound G, 2-methyl-3-(4-pyridyl)-4-(2-hydroxyphenyl)-5-ethyl-pyrazole]",response vs control in vivo at 50 mg/kg,Influenza viruses; ip,130%
same,response vs control in vivo at 500 mg/kg,Influenza viruses; ip,217%
same,responders at 50 mg/kg,Influenza viruses; ip,0%
same,responders at 500 mg/kg,Influenza viruses; ip,60%
"CCc1nn(C(C)C)c(-c2ccncc2)c1-c1ccccc1O [Compound H, 2-isopropyl-3-(4-pyridyl)-4-(2-hydroxyphenyl)-5-ethylpyrazole]",response vs control in vivo at 50 mg/kg,Influenza viruses; ip,135%
same,response vs control in vivo at 500 mg/kg,Influenza viruses; ip,191%
same,responders at 50 mg/kg,Influenza viruses; ip,0%
same,responders at 500 mg/kg,Influenza viruses; ip,30%
"CCCCn1nc(CC)c(-c2ccccc2O)c1-c1ccncc1 [Compound I, 2-n-butyl-3-(4-pyridyl)-4-(2-hydroxyphenyl)-5-ethylpyrazole]",response vs control in vivo at 5 mg/kg,Influenza viruses; ip,132%
same,response vs control in vivo at 50 mg/kg,Influenza viruses; ip,148%
same,response vs control in vivo at 500 mg/kg,Influenza viruses; ip,191%
same,responders at 5 mg/kg,Influenza viruses; ip,0%
same,responders at 50 mg/kg,Influenza viruses; ip,0%
same,responders at 500 mg/kg,Influenza viruses; ip,14%
